According to patent US20020193425A1, “Cancer chemopreventative compounds and compositions and methods of treating cancers” (priority 2001, published 2002):

Legend:
K562 = assay: NBT-reduction differentiation assay, leukemic panel; format: cell-based; settings: 4 days
Experimental: (§1) Cell lines were tested using a 4-day incubation protocol, unless otherwise specified.
(§2) 2) NBT/NSE/SE. Evaluation of NBT reduction was used to assess the ability of sample-treated cells to produce superoxide when challenged with TPA. A 1:1 (v/v) mixture of a cell suspension (10^6 cells) and TPA/NBT solution (2 mg/ml NBT and 1 μg/ml TPA in phosphate buffer saline (PBS)) was incubated for 1 h at 37° C. Then, cells were smeared on glass slides, and counterstained with 0.3% (w/v) safranin O in methanol. Positive cells reduce NBT yielding intracellular black-blue formazan deposits. NSE/SE are monocytic/granulocytic esterases that can be visualized by cytochemical staining using commercially available kits (α-Naphthyl Acetate Esterase and Naphthol As-D Chloroacetate Esterase kits, Sigma Chemical Co., St. Louis, Mo.). Positive-stained cells were quantified by microscopic examination of >200 cells. Results were expressed as a percentage of positive cells.
(§3) Concentration-dependent effect of brusatol on: (a) NBT-reduction (monocyte/granulocyte marker) of HL-60, K562, NB4, U937, and BV173 and (b) NSE expression (monocyte marker) in K562, Kasumi-1, NB4, and BV173 cells, respectively. Data points are the mean of duplicate samples.

HL-60 = assay: as above; format: cell-based, human; settings: 4 days
Experimental: as §1, §2, §3

[1] = human beings; single intravenous injection of 3 mg/m^2; cited from earlier work
in vitro = settings: human
Experimental: HL-60, K562, U937, Reh and Daudi cells were obtained from the American Type Culture Collection (Rockville, Md.). Kasumi-1, NB4, BV173, SUPB13, and RS4;11 cells were provided by the Section of Hematology/Oncology, University of Illinois College of Medicine, Chicago, Ill. All cell lines were maintained in suspension culture using RPMI 1640 medium supplemented with 10% heat-inactivated fetal bovine serum, 100 units of penicillin/ml and 100 μg of streptomycin/ml at 37° C. in a humidified atmosphere of 5% CO2 in air. All cells were routinely tested for mycoplasma contamination.
Cellular viability was monitored by Trypan blue exclusion. Inhibition of [3H]thymidine incorporation into DNA was determined to assess the level of cell proliferation as well as DNA synthesis inhibition. Cells were treated with test samples for four days and then placed into 96-well plates (100 μl) and treated with [3H]thymidine (0.5 μCi/ml, 65 Ci/mmol) for 18 h at 37° C. in a 5% CO2 incubator. Cells then were collected on glass fiber filters using a TOMTEC Harvester 96®. The filters were counted using a Microbeta™ liquid scintillation counter (Wallac, Turku, Finland) with scintillation fluid. Finally, the percentage of [3H]thymidine incorporation per 10^6 cells was calculated by dividing the dpm of sample-treated cells by the dpm of DMSO-treated cells.
^aViability was determined by Trypan blue exclusion in duplicate samples. […] Results are expressed as median inhibitory cell concentrations of two independent experiments (±standard deviations).

Row | Compound | NBT-reduction, peak induction (K562) [%] | NBT-reduction, peak induction (HL-60) [%] | blood level [1] [ng/mL] | IC50 at 4 days (in vitro) [µg/mL]
1 | COC(=O)[C@@]12OC[C@]34[C@H]([C@@H](O)[C@@H]1O)[C@@]1(C)CC(=O)C(O)=C(C)[C@@H]1C[C@H]3OC(=O)[C@H](OC(=O)C=C(C)C)[C@@H]24 [compound 1, brusatol] | 75 | 75 |  | 
2 | COC(=O)[C@@]12OC[C@]34[C@H]([C@@H](O)[C@@H]1O)[C@@]1(C)CC(=O)C(O)=C(C)[C@@H]1C[C@H]3OC(=O)[C@H](OC(=O)/C=C(\C)C(C)C)[C@@H]24 [compound 2, bruceantin] |  |  | 22 | > 0.05
